Results reported in US9249087B2, “HDAC inhibitors and therapeutic methods using the same” (THE BOARD OF TRUSTEES OF THE UNIVERSITY OF ILLINOIS, priority 2011, dated 2016).

How the values were obtained:
[1] = test system: traumatic brain injury in rats; conditions: following traumatic brain injury in rats; cited from earlier work
primary cortical neurons = experiment: HCA oxidative stress neuroprotection assay (MTT); type: cell-based
Excerpt: It has been shown that HDAC6 inhibition protects against neuronal degeneration and stimulates neurite outgrowth in dorsal root ganglion neurons, therefore indicating methods of treating CNS diseases. Accordingly, present HDACI compounds were examined in a model of oxidative stress induced by homocysteic acid (HCA). This model leads to depletion of glutathione, the major intracellular antioxidant. HDAC6 inhibition rescues neuronal death in this model, possibly by causing hyperacetylation of peroxiredoxins. […] (A. P. Kozikowski et al., J. Med. Chem. 2007, 50, 3054-61.)
FIGS. 1 and 2 contain neuroprotection bar graphs of the HCA oxidative stress test assay. Neurons were treated with TSA (FIG. 1) or a present HDACI compound (FIG. 2), alone or with the addition of HCA (homocysteic acid).
The data summarized in FIGS. 1 and 2 was obtained according to the following neuroprotective assay. Primary cortical neuron cultures were obtained from the cerebral cortex of fetal Sprague-Dawley rats (embryonic day 17). All experiments were initiated 24 hours after plating. Under these conditions, the cells are not susceptible to glutamate-mediated excitotoxicity. […] Viability was assessed after 24 hours by the MTT assay (3-(4,5-dimethylthiazol-2-yl)-2,5-diphenyltetrazolium bromide) method.

HDAC7 = HDAC7 (Homo sapiens (Human), UniProt Q8WUI4); conditions: read-out: HDAC Isoform IC50 (μM) 7
mice with colitis = experiment: colitis in mice; type: in vivo; conditions: treatment begun once colitis had developed
Excerpt: Studies of autoimmunity also are undertaken. In this case, interruption of existing disease is especially important and HDAC6 targeting can be efficacious without any requirement for additional therapy (in contrast to a need for brief low-dose RPM in the very aggressive, fully MHC-mismatched transplant models). […] These studies are extended by assessing whether deletion of HDAC6 in Tregs (Foxp3/Cre) vs. T cells (CD4=Cre) vs. DC (CD11c-Cre) differentially affect the development and severity of colitis. Similarly, control of colitis is assessed by inducing HDAC6 deletion at varying intervals after the onset of colitis with tamoxifen-regulated Cre.

HDAC2 = HDAC2 (Homo sapiens (Human), UniProt Q92769); experiment: HDAC2 fluorogenic peptide deacetylation inhibition assay; type: biochemical; conditions: average of two experiments; read-out: HDAC Isoform IC50 (μM) 2
HDAC5 = HDAC5 (Homo sapiens (Human), UniProt Q9UQL6); experiment: HDAC5 inhibition assay (Acetyl-Lys(trifluoroacetyl)-AMC substrate); type: biochemical; conditions: average of two experiments; read-out: HDAC Isoform IC50 (μM) 5
Sequence of HDAC5 (Q9UQL6 whole entry, canonical isoform): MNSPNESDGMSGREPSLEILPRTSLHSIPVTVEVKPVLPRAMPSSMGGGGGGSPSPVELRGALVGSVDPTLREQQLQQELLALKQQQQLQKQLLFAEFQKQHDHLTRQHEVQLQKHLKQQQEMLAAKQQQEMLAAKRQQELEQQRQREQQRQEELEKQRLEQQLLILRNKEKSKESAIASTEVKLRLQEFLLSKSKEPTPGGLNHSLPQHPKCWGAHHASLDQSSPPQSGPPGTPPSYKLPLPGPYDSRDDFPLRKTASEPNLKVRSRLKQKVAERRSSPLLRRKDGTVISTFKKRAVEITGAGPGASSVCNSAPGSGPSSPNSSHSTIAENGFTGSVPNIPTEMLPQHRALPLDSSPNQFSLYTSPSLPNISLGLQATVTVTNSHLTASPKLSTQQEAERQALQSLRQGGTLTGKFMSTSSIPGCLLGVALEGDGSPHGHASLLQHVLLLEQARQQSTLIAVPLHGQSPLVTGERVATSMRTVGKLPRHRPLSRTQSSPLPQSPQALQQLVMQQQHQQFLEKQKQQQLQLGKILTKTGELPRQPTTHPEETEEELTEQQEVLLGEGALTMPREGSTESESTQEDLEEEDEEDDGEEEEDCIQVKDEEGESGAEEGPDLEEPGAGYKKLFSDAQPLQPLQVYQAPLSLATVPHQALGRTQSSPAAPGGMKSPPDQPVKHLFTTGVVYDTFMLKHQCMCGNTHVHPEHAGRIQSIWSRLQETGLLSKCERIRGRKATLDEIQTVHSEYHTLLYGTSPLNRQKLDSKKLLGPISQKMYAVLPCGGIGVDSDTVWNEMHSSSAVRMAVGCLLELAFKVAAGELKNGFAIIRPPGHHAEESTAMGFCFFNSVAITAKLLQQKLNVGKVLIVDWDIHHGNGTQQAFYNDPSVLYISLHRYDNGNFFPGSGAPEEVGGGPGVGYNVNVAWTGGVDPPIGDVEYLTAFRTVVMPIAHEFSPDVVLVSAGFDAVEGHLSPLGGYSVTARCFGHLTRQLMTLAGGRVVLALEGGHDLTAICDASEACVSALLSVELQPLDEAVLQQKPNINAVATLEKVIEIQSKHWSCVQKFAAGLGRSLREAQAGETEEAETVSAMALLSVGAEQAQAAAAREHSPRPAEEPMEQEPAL

Sequence of HDAC2 (Q92769 whole entry, canonical isoform): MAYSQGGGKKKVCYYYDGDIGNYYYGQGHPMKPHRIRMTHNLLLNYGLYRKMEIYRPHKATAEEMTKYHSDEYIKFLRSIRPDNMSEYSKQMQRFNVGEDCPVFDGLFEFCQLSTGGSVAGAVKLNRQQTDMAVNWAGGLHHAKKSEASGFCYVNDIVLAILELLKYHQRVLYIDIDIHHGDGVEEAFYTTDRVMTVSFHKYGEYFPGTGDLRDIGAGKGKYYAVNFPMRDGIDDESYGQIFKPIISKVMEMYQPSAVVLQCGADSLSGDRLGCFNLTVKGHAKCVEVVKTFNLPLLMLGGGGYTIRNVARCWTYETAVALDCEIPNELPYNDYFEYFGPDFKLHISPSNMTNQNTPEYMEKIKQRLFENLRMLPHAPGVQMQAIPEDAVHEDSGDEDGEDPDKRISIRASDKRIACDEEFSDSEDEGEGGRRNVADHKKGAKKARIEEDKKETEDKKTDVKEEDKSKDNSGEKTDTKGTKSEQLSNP
Sequence of HDAC7 (Q8WUI4 whole entry, canonical isoform): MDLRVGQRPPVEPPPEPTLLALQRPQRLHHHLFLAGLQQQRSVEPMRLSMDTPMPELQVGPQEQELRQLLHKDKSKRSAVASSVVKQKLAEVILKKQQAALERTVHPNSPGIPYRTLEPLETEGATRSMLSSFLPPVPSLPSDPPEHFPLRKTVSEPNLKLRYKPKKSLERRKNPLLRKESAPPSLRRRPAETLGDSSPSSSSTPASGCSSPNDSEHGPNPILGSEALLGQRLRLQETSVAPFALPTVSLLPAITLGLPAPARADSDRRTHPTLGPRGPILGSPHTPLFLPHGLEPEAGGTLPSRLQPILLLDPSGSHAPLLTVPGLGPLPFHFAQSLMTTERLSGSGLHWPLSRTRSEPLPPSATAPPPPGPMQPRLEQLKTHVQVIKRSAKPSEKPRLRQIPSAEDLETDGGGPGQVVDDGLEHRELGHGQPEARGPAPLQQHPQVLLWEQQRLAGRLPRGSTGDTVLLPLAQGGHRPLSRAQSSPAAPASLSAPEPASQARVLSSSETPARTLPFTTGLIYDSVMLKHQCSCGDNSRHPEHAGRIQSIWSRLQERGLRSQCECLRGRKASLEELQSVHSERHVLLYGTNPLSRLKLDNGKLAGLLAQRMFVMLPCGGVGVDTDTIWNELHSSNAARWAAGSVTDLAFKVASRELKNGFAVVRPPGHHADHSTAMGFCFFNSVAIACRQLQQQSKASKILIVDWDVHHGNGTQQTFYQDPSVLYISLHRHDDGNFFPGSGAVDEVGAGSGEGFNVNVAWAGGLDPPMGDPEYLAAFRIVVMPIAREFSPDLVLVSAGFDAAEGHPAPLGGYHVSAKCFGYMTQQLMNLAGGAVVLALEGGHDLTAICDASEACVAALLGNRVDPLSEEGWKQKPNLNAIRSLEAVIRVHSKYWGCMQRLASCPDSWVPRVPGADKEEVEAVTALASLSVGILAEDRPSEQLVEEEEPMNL

CN(C)c1ccc(C(=O)NCCCCCNC(=O)CS)cc1 [DMA-PB, 4-dimethylamino-N-[5-(2-mercaptoacetylamino)pentyl]benzamide]
histone H3 acetylation [1]: increase histone H3 acetylation | microglia inflammatory response [1]: reduce microglia inflammatory response

CC(/C=C/C(=O)NO)=C\[C@@H](C)C(=O)c1ccc(N(C)C)cc1 [TSA, Trichostatin A]
neuroprotection in HCA-induced neurodegeneration assay (primary cortical neurons; 0.5 μM, HCA 5 mM, viability by MTT after 24 hours): moderately neuroprotective | neurotoxicity to primary cortical neurons (primary cortical neurons; higher concentrations than 0.5 μM): dose-dependant neurotoxicity

O=C(CCCCCCC(=O)Nc1ccc([C@H]2O[C@@H](CSc3nc(-c4ccccc4)c(-c4ccccc4)o3)C[C@@H](c3ccc(CO)cc3)O2)cc1)NO [Tubacin]
IC50 (HDAC7): 9.7 µM | rescue of mice with established colitis (mice with colitis): able to rescue mice | IC50 (HDAC2): 6.27 µM | IC50 (HDAC5): 3.35 µM
